Source: ChEMBL document CHEMBL5634104, “Identification of 1,3,4-oxadiazolyl-containing β-carboline derivatives as novel α-glucosidase inhibitors with antidiabetic activity” (Eur J Med Chem, 2023)
Calls of active or inactive are those of the source. No cut-off for these calls is given here.

What was measured:
[1] = target: T1, Alpha-glucosidase (Saccharomyces cerevisiae S288c, UniProt P53341+P38158+P07265); assay: Inhibition of Saccharomyces cerevisiae Alpha-glucosidase using p-NPG as substrate and measured after 10 mins; format: protein assay
[2] = test system: Mus musculus; assay: Anti-diabetic activity against streptozocin-induced C57/6J mouse diabetes model assessed as change in fasting blood glucose at 100 mg/kg/day, po and measured after 1 week; format: functional, organism-based; settings: time 1.0 weeks
[3] = test system: Mus musculus; assay: Anti-diabetic activity against streptozocin-induced C57/6J mouse diabetes model assessed as decrease in fasting blood glucose at 100 mg/kg/day, po and measured from 2 to 4 weeks; format: functional, organism-based; settings: time 2-4 weeks
[4] = test system: Mus musculus; assay: Anti-diabetic activity against streptozocin-induced C57/6J mouse diabetes model assessed as decrease in blood glucose level at 100 mg/kg/day, po administered for 25 days in presence of sucrose by OGTT assay; format: functional, organism-based; settings: time 25.0 day
[5] = test system: Mus musculus; assay: Antihyperlipidemic activity against streptozocin-induced C57/6J mouse assessed as decrease in total cholesterol level at 100 mg/kg/day, po administered for 4 weeks by automatic biochemical analyzer; format: functional, organism-based
[6] = test system: Mus musculus; assay: Antihyperlipidemic activity against streptozocin-induced C57/6J mouse assessed as decrease in triglyceride level at 100 mg/kg/day, po administered for 4 weeks by automatic biochemical analyzer; format: functional, organism-based
[7] = target: T1, Alpha-glucosidase; assay: Noncompetitive inhibition of Saccharomyces cerevisiae Alpha-glucosidase assessed as decrease in Vmax with constant Km using p-NPG as substrate by Lineweaver-Burk plot analysis; format: protein assay
[8] = test system: L02; assay: Cytotoxicity against human L02 cells upto 32 uM; format: toxicity, cell-based; settings: l02, 32 µM
[9] = test system: Mus musculus; assay: Anti-diabetic activity against streptozocin-induced C57/6J mouse diabetes model assessed as change in fasting blood glucose at 50 mg/kg/day, po and measured after 1 week; format: functional, organism-based; settings: time 1.0 weeks
[10] = test system: Mus musculus; assay: Anti-diabetic activity against streptozocin-induced C57/6J mouse diabetes model assessed as decrease in fasting blood glucose at 50 mg/kg/day, po and measured from 2 to 4 weeks; format: functional, organism-based; settings: time 2-4 weeks
[11] = test system: Mus musculus; assay: Anti-diabetic activity against streptozocin-induced C57/6J mouse diabetes model assessed as decrease in blood glucose level at 50 mg/kg/day, po administered for 25 days in presence of sucrose by OGTT assay; format: functional, organism-based; settings: time 25.0 day
[12] = test system: Mus musculus; assay: Antihyperlipidemic activity against streptozocin-induced C57/6J mouse assessed as decrease in total cholesterol level at 50 mg/kg/day, po administered for 4 weeks by automatic biochemical analyzer; format: functional, organism-based
[13] = test system: Mus musculus; assay: Antihyperlipidemic activity against streptozocin-induced C57/6J mouse assessed as decrease in triglyceride level at 50 mg/kg/day, po administered for 4 weeks by automatic biochemical analyzer; format: functional, organism-based

| Structure (SMILES) | IC50 [1] | other results |
| --- | --- | --- |
| N#Cc1cccc(CSc2nnc(-c3cc4c([nH]c5ccccc54)c(-c4ccccc4)n3)o2)c1 | 10.42 µM |  |
| O=[N+]([O-])c1ccccc1CSc1nnc(-c2cc3c([nH]c4ccccc43)c(-c3ccccc3)n2)o1 | 9.57 µM |  |
| Cc1ccccc1CSc1nnc(-c2cc3c([nH]c4ccccc43)c(-c3ccccc3)n2)o1 | 3.33 µM |  |
| Cc1cccc(CSc2nnc(-c3cc4c([nH]c5ccccc54)c(-c4ccccc4)n3)o2)c1 | 10.4 µM |  |
| FC(F)(F)c1ccccc1CSc1nnc(-c2cc3c([nH]c4ccccc43)c(-c3ccccc3)n2)o1 | 10.59 µM |  |
| c1ccc(-c2ccc(CSc3nnc(-c4cc5c([nH]c6ccccc65)c(-c5ccccc5)n4)o3)cc2)cc1 | 4.32 µM |  |
| Fc1cccc(CSc2nnc(-c3cc4c([nH]c5ccccc54)c(-c4ccccc4)n3)o2)c1 | 15.41 µM |  |
| O=[N+]([O-])c1cccc(CSc2nnc(-c3cc4c([nH]c5ccccc54)c(-c4ccccc4)n3)o2)c1 | 5.76 µM |  |
| C[C@H]1O[C@H](O[C@H]2[C@H](O)[C@@H](O)[C@@H](O[C@H]3[C@H](O)[C@@H](O)C(O)O[C@@H]3CO)O[C@@H]2CO)[C@H](O)[C@@H](O)[C@@H]1N[C@H]1C=C(CO)[C@@H](O)[C@H](O)[C@H]1O (some centres undefined) |  | Activity [2]: inactive; Activity [3]: Active; Activity [4]: Active; Activity [5]: Active; Activity [6]: Active |
| Fc1ccc(CSc2nnc(-c3cc4c([nH]c5ccccc54)c(-c4ccccc4)n3)o2)cc1F | 9.12 µM |  |
| c1ccc(-c2ccccc2CSc2nnc(-c3cc4c([nH]c5ccccc54)c(-c4ccccc4)n3)o2)cc1 | 3.07 µM | Ki [7]: 1.22 µM; Activity [8]: Non-Toxic; Activity [9]: inactive; Activity [10]: Active; Activity [11]: Active; Activity [12]: Active; Activity [13]: Active |
| FC(F)(F)c1cccc(CSc2nnc(-c3cc4c([nH]c5ccccc54)c(-c4ccccc4)n3)o2)c1 | 12.25 µM |  |
| Clc1ccc(CSc2nnc(-c3cc4c([nH]c5ccccc54)c(-c4ccccc4)n3)o2)cc1Cl | 9.66 µM |  |
| COC(=O)c1ccccc1CSc1nnc(-c2cc3c([nH]c4ccccc43)c(-c3ccccc3)n2)o1 | 5.58 µM |  |
| c1ccc(-c2cccc(CSc3nnc(-c4cc5c([nH]c6ccccc65)c(-c5ccccc5)n4)o3)c2)cc1 | 3.39 µM |  |
| Clc1cccc(CSc2nnc(-c3cc4c([nH]c5ccccc54)c(-c4ccccc4)n3)o2)c1 | 12.71 µM |  |
| Fc1ccccc1CSc1nnc(-c2cc3c([nH]c4ccccc43)c(-c3ccccc3)n2)o1 | 14.75 µM |  |
| FC(F)(F)Oc1cccc(CSc2nnc(-c3cc4c([nH]c5ccccc54)c(-c4ccccc4)n3)o2)c1 | 10.93 µM |  |
| N#Cc1ccccc1CSc1nnc(-c2cc3c([nH]c4ccccc43)c(-c3ccccc3)n2)o1 | 10.57 µM |  |
| Clc1ccccc1CSc1nnc(-c2cc3c([nH]c4ccccc43)c(-c3ccccc3)n2)o1 | 5.46 µM |  |
| FC(F)(F)Oc1ccccc1CSc1nnc(-c2cc3c([nH]c4ccccc43)c(-c3ccccc3)n2)o1 | 10.64 µM |  |
| COC(=O)c1cccc(CSc2nnc(-c3cc4c([nH]c5ccccc54)c(-c4ccccc4)n3)o2)c1 | 4.93 µM |  |

Second part, led by results:

| IC50 [1] | Structure (SMILES) | other results |
| --- | --- | --- |
| 5.42 µM | Brc1ccc(CSc2nnc(-c3cc4c([nH]c5ccccc54)c(-c4ccccc4)n3)o2)cc1 |  |
| 6.15 µM | CS(=O)(=O)c1ccc(CSc2nnc(-c3cc4c([nH]c5ccccc54)c(-c4ccccc4)n3)o2)cc1 |  |
| 4.95 µM | CC(C)(C)c1ccc(CSc2nnc(-c3cc4c([nH]c5ccccc54)c(-c4ccccc4)n3)o2)cc1 |  |
| 10.36 µM | N#Cc1ccc(CSc2nnc(-c3cc4c([nH]c5ccccc54)c(-c4ccccc4)n3)o2)cc1 |  |
| 4.6 µM | COC(=O)c1ccc(CSc2nnc(-c3cc4c([nH]c5ccccc54)c(-c4ccccc4)n3)o2)cc1 |  |
| 8.48 µM | FC(F)(F)c1ccc(CSc2nnc(-c3cc4c([nH]c5ccccc54)c(-c4ccccc4)n3)o2)cc1 |  |
| 11.86 µM | Cc1ccc(CSc2nnc(-c3cc4c([nH]c5ccccc54)c(-c4ccccc4)n3)o2)cc1 |  |
| 15.49 µM | c1ccc(CSc2nnc(-c3cc4c([nH]c5ccccc54)c(-c4ccccc4)n3)o2)cc1 | Ki [7]: 1.81 µM |
| 3.1 µM | O=[N+]([O-])c1ccc(CSc2nnc(-c3cc4c([nH]c5ccccc54)c(-c4ccccc4)n3)o2)cc1 | Ki [7]: 2.86 µM |
| 6.44 µM | FC(F)(F)Oc1ccc(CSc2nnc(-c3cc4c([nH]c5ccccc54)c(-c4ccccc4)n3)o2)cc1 |  |
| 8.47 µM | Brc1cccc(CSc2nnc(-c3cc4c([nH]c5ccccc54)c(-c4ccccc4)n3)o2)c1 |  |
| 5.31 µM | Clc1ccc(CSc2nnc(-c3cc4c([nH]c5ccccc54)c(-c4ccccc4)n3)o2)cc1 |  |
| 6.97 µM | Brc1ccccc1CSc1nnc(-c2cc3c([nH]c4ccccc43)c(-c3ccccc3)n2)o1 |  |
| 14.73 µM | Fc1ccc(CSc2nnc(-c3cc4c([nH]c5ccccc54)c(-c4ccccc4)n3)o2)cc1 |  |
